Results published in PMC11653243, “Enhancing Phototoxicity in BODIPY‐Perylene Charge Transfer Dyads by Combined Iodination and Mesylation” (Chemistry (Weinheim an Der Bergstrasse, Germany), 2024).
Several values for one entry are separate records, joined by “and”; a condition that tells them apart may be missing. Equal entries are not always repeated. Where two headings read alike, the source gives them in different places.

Legend:
[1] = design: method as in PMID 36802283; conditions: cited from earlier work
MCF‐7 cells = test system: MCF‐7 cells; design: method as in PMID 36807947; conditions: 470 nm LED, 17±1.64 J/cm^2, published previously, read-out: Light IC50 (converted); cited from earlier work
[2] = Photophysical properties (absorption, emission, quantum yield, lifetime) in solvents; type: physicochemical; conditions: for Φf: absolute quantum yield, integrating sphere; for τave: intensity weighted average lifetime; for kr: kr=ΦF/τave; for emission intensity from water relative to emission intensity from toluene: matched absorption, water with 10 % DMSO
From the text: The absorption and emission spectra of MB2P and MB2PI are shown in Figure 3, in a range of solvents across polarities. […] The absorption maxima is largely unaffected by solvent, similar to B2P/B2PI. The extinction coefficient is also modestly affected for MB2P but does vary with solvent for MB2PI, although the change is not correlated with solvent polarity. All compounds also show characteristic perylene absorption features between 400 and 430 nm. Also consistent with this previous study, the emission spectra are strongly solvent dependent. Intensely emissive from non‐polar media, MB2P and MB2PI are minimally emissive in polar (ethanol and DMSO) and aqueous media, (with 10 % DMSO for solubilisation). For example, under matched absorption conditions used to generate Figure 3, the emission intensity from water was 0.13 % (MB2P) and 1.6 % (MB2PI) of the emission intensity from toluene (see Figure S20).
Figure 3 Right, Absorption spectra of (A) MB2P and (B) MB2PI in different solvents at 10 μM, and, left, their respective emission. Excitation wavelength 532 nm, data recorded with 2.5–2.5 nm slit widths.

CHO cells = assay: ROS imaging with H2DCFDA in live cells; type: cell-based, Chinese Hamster; conditions: 30 μM, 17 h; 488 nm (0.38 mW/cm^2) for 5 minutes
Protocol: To study the production of ROS in a live cell environment a commercial ROS dye, H2DCFDA was used. CHO and MCF‐7 cells were incubated with MB2PI (30 μM, 17 h), washed with PBS and co‐stained with H2DCFDA (5 μM, 30 min). To ensure no photoactivation of MB2PI, emission from H2DCFDA was collected alone prior to the excitation of the BODIPY. The complex was then irradiated continuously at 488 nm (0.38 mW/cm^2) for 5 minutes. […] Weak emission of H2DCFDA was observed prior to irradiation, consistent with the low cytotoxicity of the complex. However, after irradiation, the fluorescence intensity of the ROS dye increases dramatically indicating ROS production, consistent with the high phototoxicity of MB2PI in both test cell lines. The higher phototoxicity of MB2PI in MCF‐7 cells restricted the ROS imaging study to CHO cells as the MCF‐7 cells began to die rapidly upon irradiation. Controls completed by adding H2DCFDA in test cells without MB2PI confirmed no ROS production with or without irradiation at 488 nm.
Figure S32. DPBF (10 mM) 1O2 scavenger assay with B2P, MB2P, B2PI or MB2PI in methanol from 0-210 seconds irradiation, where absorbance at 410 nm was recorded every 30 seconds.
CHO and MCF-7 cells were treated with MB2PI (30 µM, 17 h) for the ROS imaging studies. […]
A 63x oil immersion objective was used to acquire images. The irradiance was determined using a power meter from Edmund Optics. […]

CC1=C(I)C(C)=[N+]2C1=C(c1ccccc1)c1c(C)c(-c3ccc4c5cccc6cccc(c7cccc3c74)c65)c(C)n1[B-]2(F)F [B2PI]
Mol. Bright ([1]; Dioxane): 2028 | Stokes Shift ([1]; Dioxane): 3232 cm⁻¹ | knr ([1]; Dioxane): 68 10^7 s^−1 | kr ([1]; Dioxane): 1.8 10^7 s^−1 | Φf ([1]; Dioxane): 0.03 | λabs ([1]; Dioxane): 531 nm | λem ([1]; Dioxane): 641 nm | τave ([1]; Dioxane): 1.4±0.01 ns | ϵ ([1]; Dioxane): 67600 M⁻¹ cm⁻¹ | Amp of τ1 ([1]; Toluene): 7.2% | Amp of τ2 ([1]; Toluene): 92.8% | Mol. Bright ([1]; Toluene): 1899 | Stokes Shift ([1]; Toluene): 3003 cm⁻¹ | knr ([1]; Toluene): 32 10^7 s^−1 | kr ([1]; Toluene): 8.5 10^7 s^−1 | Φf ([1]; Toluene): 0.03 | λabs ([1]; Toluene): 534 nm | λem ([1]; Toluene): 636 nm | τ1 ([1]; Toluene): 2.9±0.1 ns | τ2 ([1]; Toluene): 0.7±0.01 ns | τave ([1]; Toluene): 1.2±0.0 ns | ϵ ([1]; Toluene): 63300 M⁻¹ cm⁻¹ | IC50 (MCF‐7 cells): 0.235 µM

CC1=CC(C)=[N+]2C1=C(c1ccccc1)c1c(C)c(-c3ccc4c5cccc6cccc(c7cccc3c74)c65)c(C)n1[B-]2(F)F [B2P]
Amp of τ1 ([1]; Dioxane): 5.3% | Amp of τ2 ([1]; Dioxane): 94.7% | Mol. Bright ([1]; Dioxane): 6588 | Stokes Shift ([1]; Dioxane): 3417 cm⁻¹ | knr ([1]; Dioxane): 44 10^7 s^−1 | kr ([1]; Dioxane): 4.6 10^7 s^−1 | Φf ([1]; Dioxane): 0.09 | λabs ([1]; Dioxane): 515 nm | λem ([1]; Dioxane): 625 nm | τ1 ([1]; Dioxane): 4.1±0.2 ns | τ2 ([1]; Dioxane): 1.8±0.0 ns | τave ([1]; Dioxane): 2.0±0.0 ns | ϵ ([1]; Dioxane): 73200 M⁻¹ cm⁻¹ | Mol. Bright ([1]; Toluene): 16884 | Stokes Shift ([1]; Toluene): 3071 cm⁻¹ | knr ([1]; Toluene): 79 10^7 s^−1 | kr ([1]; Toluene): 2.6 10^7 s^−1 | Φf ([1]; Toluene): 0.21 | λabs ([1]; Toluene): 518 nm | λem ([1]; Toluene): 616 nm | τ1 ([1]; Toluene): 2.5±0.0 ns | τave ([1]; Toluene): 2.5±0.01 ns | ϵ ([1]; Toluene): 80400 M⁻¹ cm⁻¹

CC1=C(c2ccc3c4cccc5cccc(c6cccc2c63)c54)C(C)=[N+]2C1=C(c1c(C)cc(C)cc1C)c1c(C)c(I)c(C)n1[B-]2(F)F [MB2PI]
Amp of τ1 ([2]; Dioxane): 2.5% | Amp of τ2 ([2]; Dioxane): 97.5% | Mol. Bright ([2]; Dioxane): 4374 | Stokes Shift ([2]; Dioxane): 3049 cm⁻¹ | knr ([2]; Dioxane): 85 10^7 s^−1 | λabs ([2]; Dioxane): ~532 nm | λem ([2]; Dioxane): 635 nm | τ1 ([2]; Dioxane): 4.0±0.1 ns | τ2 ([2]; Dioxane): 0.7 ns and 0.7±0.01 ns | ϵ ([2]; Dioxane): 72900 M⁻¹ cm⁻¹ | Φf ([2]; Dioxane): 0.06 | τave ([2]; Dioxane): 1.1±0.0 ns | kr ([2]; Dioxane): 5.73 10^7 s^−1 | Amp of τ1 ([2]; Toluene): 5.6% | Amp of τ2 ([2]; Toluene): 94.4% | Mol. Bright ([2]; Toluene): 6534 | Stokes Shift ([2]; Toluene): 2854 cm⁻¹ | knr ([2]; Toluene): 114 10^7 s^−1 | λabs ([2]; Toluene): 534 nm | λem ([2]; Toluene): 630 nm | τ1 ([2]; Toluene): 1.6±0.1 ns | τ2 ([2]; Toluene): 0.7 ns and 0.7±0.01 ns | ϵ ([2]; Toluene): 72600 M⁻¹ cm⁻¹ | Φf ([2]; Toluene): 0.09 | τave ([2]; Toluene): 0.8±0.0 ns | kr ([2]; Toluene): 11.2 10^7 s^−1 | emission intensity from water relative to emission intensity from toluene [2]: 1.6% | ROS production (H2DCFDA fluorescence) after irradiation (CHO cells): increased production of ROS

CC1=C(c2ccc3c4cccc5cccc(c6cccc2c63)c54)C(C)=[N+]2C1=C(c1c(C)cc(C)cc1C)c1c(C)cc(C)n1[B-]2(F)F [MB2P]
Mol. Bright ([2]; Dioxane): 20516 | Stokes Shift ([2]; Dioxane): 3131 cm⁻¹ | knr ([2]; Dioxane): 25 10^7 s^−1 | λem ([2]; Dioxane): 614 nm | τ1 ([2]; Dioxane): 3.1±0.1 ns | ϵ ([2]; Dioxane): 89200 M⁻¹ cm⁻¹ | Φf ([2]; Dioxane): 0.23 | τave ([2]; Dioxane): 3.1±0.1 ns | kr ([2]; Dioxane): 7.4 10^7 s^−1 | Mol. Bright ([2]; Toluene): 32148 | Stokes Shift ([2]; Toluene): 3002 cm⁻¹ | knr ([2]; Toluene): 23 10^7 s^−1 | λabs ([2]; Toluene): 517 nm | λem ([2]; Toluene): 612 nm | τ1 ([2]; Toluene): 2.8±0.0 ns | ϵ ([2]; Toluene): 89300 M⁻¹ cm⁻¹ | Φf ([2]; Toluene): 0.36 | τave ([2]; Toluene): 2.8±0.0 ns | kr ([2]; Toluene): 12.9 10^7 s^−1 | emission intensity from water relative to emission intensity from toluene [2]: 0.13%
